Patent US20220002288A1, “MONOBACTAM COMPOUNDS AND USE THEREFOR” (priority 2018, published 2022)
Where a name gives a salt, the structure may show the parent alone.

How the values were obtained:
Escherichia coli = assay: In vitro antibacterial activity, minimum inhibitory concentration (MIC); assay type: cell-based; conditions: strain CLB30048, read-out: MIC
Method in brief: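 CLSI broth microdilution in 1.02×CAMHB; two-fold compound series 64 to 0.0625 μg/mL final from DMSO. Inoculum from TSA colonies adjusted to OD600 0.1-0.15 in saline, diluted 400-fold, verified by colony count. Growth scored visually after 20 h at 35±2° C.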

[1] = Pharmacokinetics of the compounds in mice; assay type: in vivo, BALB/c mice
Text: Animals: male BALB/c mice, SPF grade, purchased from Changzhou Cavens Experimental Animal Co., Ltd.; 16-24 g, license number: SCXK (Su)2016-0010; 2 to 3 days of adaptation period were given before the experiment.
Instruments: API 4500 High Performance Liquid Chromatograph Coupled Triple Quadrupole Mass Spectrometer, and Analyst QS A01.01 Chromatography Workstation were both purchased from AB SCIEX of the United States; Milli-Q ultrapure water device was purchased from Millipore; CF16R XII desktop high-speed refrigerated centrifuge was purchased From Hitachi Company; Qilinbeier Vortex-5 oscillator was purchased from IKA Company of German; electric heating constant-temperature water bath was purchased from Changzhou Guohua Electric Appliance Co., Ltd.; electric pipette was purchased from Thermo Company of American; and microanalysis balance was purchased from Shanghai Mettler Co., Ltd.
2 mg of the test compound was weighed, added to physiological saline, vortexed for 2 min, and ultrasonicated for 3 min, to prepare a test solution with a concentration of 0.2 mg/mL for intravenous administration.
A single dose of 2 mg/kg of the test compound was administered to BALB/c mice via the tail vein, the dose volume being 0.1 mL/10 g. At 5 min, 15 min, 30 min, 1 h, 2 h, 4 h after administration, blood samples were collected from the orbital venous plexus into heparinized EP tubes (0.6 mL), which were temporarily placed on crushed ice.
The samples were centrifuged at 8000 rpm for 5 min. 15 μL of upper plasma were transferred to a 96-well plate. 150 μL of methanol:acetonitrile (v/v=1:1) (containing 20 ng/mL tolbutamide) was added to 15 μL of plasma, shaken for 3 min, and centrifuged at 4500 rpm for 5 min. 100 μL of supernatant was taken to a 2 mL deep well plate. 100 μL of diluent (pure water) was added. The samples were shaken for 3 min, and centrifuged at 4500 rpm for 5 min. 180 μL of the supernatant was transferred to the sample plate. The content of the compound in the supernatant sample was analyzed by LC-MS/MS, and various pharmacokinetic parameters were calculated with WinNonlin software.

[2] = test system: drug-resistant Acinetobacter baumannii; assay: MIC in combination with Relebactam; assay type: cell-based
Text: In addition, the inventors of the present invention also tested the inhibitory activities of the compound of Example 1 and Compound C, respectively, in combination with Relebactam on drug-resistant Acinetobacter baumannii (the experimental method was the same as that in Experimental Example 1).

[3] = mouse, male BALB/c mice, single intravenous dose 2 mg/kg, plasma

Which MIC (Escherichia coli) does the source give for `CC1(C)[C@H](NC(=O)/C(=N\O[C@@H](COc2ccc(C(=O)Nc3cn(CCCN)[n+](CC4CNC4)c3)cc2)C(=O)O)c2csc(N)n2)C(=O)N1OS(=O)(=O)[O-]` [Example 1, (S)-3-((Z)-2-(((S)-2-(4-((1-(3-aminopropyl)-2-(azetidin-3-ylmethyl)-1H-pyrazol-2-ium-4-yl)carbamoyl)phenoxy)-1-carboxyethoxy)imino)-2-(2-aminothiazol-4-yl)acetylamino)-2,2-dimethyl-4-oxoazetidin-1-yl Sulfate] here?
Its MIC is 2 µg/mL.

What about the “blood concentration (CO)” value ([1]; intravenous dose of 2 mg/kg) of the same molecule?
Its value is 11548 ng/mL.

And the Vd ([1]; male, BALB/c, mouse, plasma, iv, 2 mg/kg, male BALB/c mice, single intravenous dose 2 mg/kg, plasma, read-out: VSS)?
Its Vd is 0.25 L/kg.

And the AUC(0-inf) [1, 3]?
The AUC(0-inf) was 3180 ng·h/mL.

What about the AUC(0-t) [1, 3] of the same molecule?
Its AUC(0-t) is 3140 ng·h/mL.

What about the C0 [1, 3] of the same molecule?
The C0 was 11500 ng/mL.

And the clearance [1, 3]?
Its clearance is 10.8 mL/min/kg.

What about the half-life [1, 3] of the same molecule?
Its half-life is 20.4 min.

What about the MIC ([2]; strain HDBAB-YK12, in combination with 4 μg/mL Relebactam) of the same molecule?
The MIC was 2 µg/mL.

What about the MIC ([2]; strain HDBAB-YK16, in combination with 4 μg/mL Relebactam) of the same molecule?
Its MIC is 4 µg/mL.

And the MIC ([2]; strain HDBAB_OXA_7, in combination with 4 μg/mL Relebactam)?
The MIC was 2 µg/mL.
